BindingDB's records for doi:10.1016/s0960-894x(01)00323-7 (Kyoto University, 2001)

What was measured:
[1] = Effective concentration for 50% protection of HIV-induced cytopathogenicity in MT-4 cells on the MTT assay
[2] = Inhibitory concentration determined on an HIV infection model mediated by CXCR4
[3] = Effective concentration for 50% protection of HIV-induced cytopathogenicity in MT-4 cells on the MTT assay; remark: listed apart in the source

Row | SMILES | EC50 [1] | IC50 [2] | EC50 [3]
1 | NCCCC[C@@H]1NC(=O)[C@H](CCCNC(N)=O)NC(=O)[C@H](Cc2ccc(O)cc2)NC(=O)[C@@H](NC(=O)[C@H](Cc2ccc3ccccc3c2)NC(=O)[C@H](CCCN=C(N)N)NC(=O)[C@@H](N)CCCNC(N)=O)CSSC[C@@H](C(=O)N[C@@H](CCCN=C(N)N)C(N)=O)NC(=O)[C@H](CCCNC(N)=O)NC(=O)[C@H](CCCN=C(N)N)NC(=O)[C@H](Cc2ccc(O)cc2)NC(=O)[C@@H]2CCCN2C(=O)[C@@H](CCCCN)NC1=O [Derivative of T140 peptide] | 6.6 nM |  | 
2 | NCCCC[C@@H]1NC(=O)[C@H](CCCN=C(N)N)NC(=O)[C@H](Cc2ccc(O)cc2)NC(=O)[C@@H](NC(=O)[C@@H](NC(=O)[C@H](CCCN=C(N)N)NC(=O)[C@@H](N)CCCN=C(N)N)c2ccc3ccccc3c2)CSSC[C@@H](C(=O)N[C@@H](CCCN=C(N)N)C(=O)O)NC(=O)[C@H](CCCNC(N)=O)NC(=O)[C@H](CCCNC(N)=O)NC(=O)[C@H](Cc2ccc(O)cc2)NC(=O)[C@@H]2CCCN2C(=O)[C@@H](CCCNC(N)=O)NC1=O [Derivative of T140 peptide] | 7.8 nM |  | 
3 | NCCCC[C@@H]1NC(=O)[C@H](CCCN=C(N)N)NC(=O)[C@H](Cc2ccc(O)cc2)NC(=O)[C@@H](NC(=O)[C@@H](NC(=O)[C@H](CCCN=C(N)N)NC(=O)[C@@H](N)CCCNC(N)=O)c2ccc3ccccc3c2)CSSC[C@@H](C(=O)N[C@@H](CCCN=C(N)N)C(N)=O)NC(=O)[C@H](CCCNC(N)=O)NC(=O)[C@H](CCCNC(N)=O)NC(=O)[C@H](Cc2ccc(O)cc2)NC(=O)[C@@H]2CCCN2C(=O)[C@@H](CCCCN)NC1=O [Derivative of T140 peptide] | 40 nM |  | 
4 | NCCCC[C@@H]1NC(=O)[C@H](CCCNC(N)=O)NC(=O)[C@H](Cc2ccc(O)cc2)NC(=O)[C@@H](NC(=O)[C@@H](NC(=O)[C@H](CCCN=C(N)N)NC(=O)[C@@H](N)CCCN=C(N)N)c2ccc3ccccc3c2)CSSC[C@@H](C(=O)N[C@@H](CCCN=C(N)N)C(N)=O)NC(=O)[C@H](CCCNC(N)=O)NC(=O)[C@H](CCCN=C(N)N)NC(=O)[C@H](Cc2ccc(O)cc2)NC(=O)[C@@H]2CCCN2C(=O)[C@@H](CCCCN)NC1=O [Derivative of T140 peptide] |  | 12 nM | 0.6 nM
5 | NCCCC[C@@H]1NC(=O)[C@H](CCCNC(N)=O)NC(=O)[C@H](Cc2ccc(O)cc2)NC(=O)[C@@H](NC(=O)[C@@H](NC(=O)[C@H](CCCN=C(N)N)NC(=O)[C@@H](N)CCCN=C(N)N)c2ccc3ccccc3c2)CSSC[C@@H](C(=O)N[C@@H](CCCN=C(N)N)C(N)=O)NC(=O)[C@H](CCCNC(N)=O)NC(=O)[C@H](CCCNC(N)=O)NC(=O)[C@H](Cc2ccc(O)cc2)NC(=O)[C@@H]2CCCN2C(=O)[C@@H](CCCCN)NC1=O [Derivative of T140 peptide] | 6.8 nM |  | 
6 | NCCCC[C@@H]1NC(=O)[C@H](CCCN=C(N)N)NC(=O)[C@H](Cc2ccc(O)cc2)NC(=O)[C@@H](NC(=O)[C@@H](NC(=O)[C@H](CCCN=C(N)N)NC(=O)[C@@H](N)CCCN=C(N)N)c2ccc3ccccc3c2)CSSC[C@@H](C(=O)N[C@@H](CCCN=C(N)N)C(=O)O)NC(=O)[C@H](CCCNC(N)=O)NC(=O)[C@H](CCCN=C(N)N)NC(=O)[C@H](Cc2ccc(O)cc2)NC(=O)[C@@H]2CCCN2C(=O)[C@@H](CCCCN)NC1=O [Compound T140] | 3.3 nM | 10 nM | 
7 | NCCCC[C@@H]1NC(=O)[C@H](CCCNC(N)=O)NC(=O)[C@H](Cc2ccc(O)cc2)NC(=O)[C@@H](NC(=O)[C@@H](NC(=O)[C@H](CCCN=C(N)N)NC(=O)[C@@H](N)CCCN=C(N)N)c2ccc3ccccc3c2)CSSC[C@@H](C(=O)N[C@@H](CCCN=C(N)N)C(=O)O)NC(=O)[C@H](CCCNC(N)=O)NC(=O)[C@H](CCCN=C(N)N)NC(=O)[C@H](Cc2ccc(O)cc2)NC(=O)[C@@H]2CCCN2C(=O)[C@@H](CCCCN)NC1=O [Derivative of T140 peptide] |  | 8 nM | 2.8 nM
8 | NCCCC[C@@H]1NC(=O)[C@H](CCCN=C(N)N)NC(=O)[C@H](Cc2ccc(O)cc2)NC(=O)[C@@H](NC(=O)[C@@H](NC(=O)[C@H](CCCN=C(N)N)NC(=O)[C@@H](N)CCCN=C(N)N)c2ccc3ccccc3c2)CSSC[C@@H](C(=O)N[C@@H](CCCN=C(N)N)C(=O)O)NC(=O)[C@H](CCCNC(N)=O)NC(=O)[C@H](CCCN=C(N)N)NC(=O)[C@H](Cc2ccc(O)cc2)NC(=O)[C@@H]2CCCN2C(=O)[C@@H](CCCNC(N)=O)NC1=O [T140] |  | 23 nM | 4 nM
9 | NCCCC[C@@H]1NC(=O)[C@H](CCCN=C(N)N)NC(=O)[C@H](Cc2ccc(O)cc2)NC(=O)[C@@H](NC(=O)[C@@H](NC(=O)[C@H](CCCN=C(N)N)NC(=O)[C@@H](N)CCCN=C(N)N)c2ccc3ccccc3c2)CSSC[C@@H](C(=O)N[C@@H](CCCN=C(N)N)C(N)=O)NC(=O)[C@H](CCCNC(N)=O)NC(=O)[C@H](CCCN=C(N)N)NC(=O)[C@H](Cc2ccc(O)cc2)NC(=O)[C@@H]2CCCN2C(=O)[C@@H](CCCCN)NC1=O [Derivative of T140 peptide] | 72 nM |  | 
10 | NCCCC[C@@H]1NC(=O)[C@H](CCCN=C(N)N)NC(=O)[C@H](Cc2ccc(O)cc2)NC(=O)[C@@H](NC(=O)[C@@H](NC(=O)[C@H](CCCN=C(N)N)NC(=O)[C@@H](N)CCCN=C(N)N)c2ccc3ccccc3c2)CSSC[C@@H](C(=O)N[C@@H](CCCN=C(N)N)C(N)=O)NC(=O)[C@H](CCCNC(N)=O)NC(=O)[C@H](CCCN=C(N)N)NC(=O)[C@H](Cc2ccc(O)cc2)NC(=O)[C@@H]2CCCN2C(=O)[C@@H](CCCNC(N)=O)NC1=O [Derivative of T140 peptide] |  | 24 nM | 4.6 nM
11 | NCCCC[C@@H]1NC(=O)[C@H](CCCN=C(N)N)NC(=O)[C@H](Cc2ccc(O)cc2)NC(=O)[C@@H](NC(=O)[C@@H](NC(=O)[C@H](CCCN=C(N)N)NC(=O)[C@@H](N)CCCN=C(N)N)c2ccc3ccccc3c2)CSSC[C@@H](C(=O)N[C@@H](CCCN=C(N)N)C(N)=O)NC(=O)[C@H](CCCNC(N)=O)NC(=O)[C@H](CCCNC(N)=O)NC(=O)[C@H](Cc2ccc(O)cc2)NC(=O)[C@@H]2CCCN2C(=O)[C@@H](CCCNC(N)=O)NC1=O [Derivative of T140 peptide] | 2.7 nM |  | 
12 | NCCCC[C@@H]1NC(=O)[C@H](CCCN=C(N)N)NC(=O)[C@H](Cc2ccc(O)cc2)NC(=O)[C@@H](NC(=O)[C@@H](NC(=O)[C@H](CCCN=C(N)N)NC(=O)[C@@H](N)CCCNC(N)=O)c2ccc3ccccc3c2)CSSC[C@@H](C(=O)N[C@@H](CCCN=C(N)N)C(N)=O)NC(=O)[C@H](CCCNC(N)=O)NC(=O)[C@H](CCCN=C(N)N)NC(=O)[C@H](Cc2ccc(O)cc2)NC(=O)[C@@H]2CCCN2C(=O)[C@@H](CCCNC(N)=O)NC1=O [Derivative of T140 peptide] | 1.2 nM |  | 
13 | NCCCC[C@@H]1NC(=O)[C@H](CCCN=C(N)N)NC(=O)[C@H](Cc2ccc(O)cc2)NC(=O)[C@@H](NC(=O)[C@@H](NC(=O)[C@H](CCCN=C(N)N)NC(=O)[C@@H](N)CCCNC(N)=O)c2ccc3ccccc3c2)CSSC[C@@H](C(=O)N[C@@H](CCCN=C(N)N)C(=O)O)NC(=O)[C@H](CCCNC(N)=O)NC(=O)[C@H](CCCN=C(N)N)NC(=O)[C@H](Cc2ccc(O)cc2)NC(=O)[C@@H]2CCCN2C(=O)[C@@H](CCCNC(N)=O)NC1=O [Derivative of T140 peptide] | 36 nM |  | 
14 | NCCCC[C@@H]1NC(=O)[C@H](CCCNC(N)=O)NC(=O)[C@H](Cc2ccc(O)cc2)NC(=O)[C@@H](NC(=O)[C@@H](NC(=O)[C@H](CCCN=C(N)N)NC(=O)[C@@H](N)CCCN=C(N)N)c2ccc3ccccc3c2)CSSC[C@@H](C(=O)N[C@@H](CCCN=C(N)N)C(=O)O)NC(=O)[C@H](CCCNC(N)=O)NC(=O)[C@H](CCCN=C(N)N)NC(=O)[C@H](Cc2ccc(O)cc2)NC(=O)[C@@H]2CCCN2C(=O)[C@@H](CCCNC(N)=O)NC1=O [Derivative of T140 peptide] |  | 51 nM | 0.5 nM
15 | NCCCC[C@@H]1NC(=O)[C@H](CCCNC(N)=O)NC(=O)[C@H](Cc2ccc(O)cc2)NC(=O)[C@@H](NC(=O)[C@@H](NC(=O)[C@H](CCCN=C(N)N)NC(=O)[C@@H](N)CCCN=C(N)N)c2ccc3ccccc3c2)CSSC[C@@H](C(=O)N[C@@H](CCCN=C(N)N)C(=O)O)NC(=O)[C@H](CCCNC(N)=O)NC(=O)[C@H](CCCNC(N)=O)NC(=O)[C@H](Cc2ccc(O)cc2)NC(=O)[C@@H]2CCCN2C(=O)[C@@H](CCCCN)NC1=O [Derivative of T140 peptide] | 8.9 nM |  | 
16 | NCCCC[C@@H]1NC(=O)[C@H](CCCNC(N)=O)NC(=O)[C@H](Cc2ccc(O)cc2)NC(=O)[C@@H](NC(=O)[C@@H](NC(=O)[C@H](CCCN=C(N)N)NC(=O)[C@@H](N)CCCN=C(N)N)c2ccc3ccccc3c2)CSSC[C@@H](C(=O)N[C@@H](CCCN=C(N)N)C(N)=O)NC(=O)[C@H](CCCNC(N)=O)NC(=O)[C@H](CCCN=C(N)N)NC(=O)[C@H](Cc2ccc(O)cc2)NC(=O)[C@@H]2CCCN2C(=O)[C@@H](CCCNC(N)=O)NC1=O [Derivative of T140 peptide] |  | 19 nM | 0.4 nM
17 | NCCCC[C@@H]1NC(=O)[C@H](CCCN=C(N)N)NC(=O)[C@H](Cc2ccc(O)cc2)NC(=O)[C@@H](NC(=O)[C@@H](NC(=O)[C@H](CCCN=C(N)N)NC(=O)[C@@H](N)CCCNC(N)=O)c2ccc3ccccc3c2)CSSC[C@@H](C(=O)N[C@@H](CCCN=C(N)N)C(=O)O)NC(=O)[C@H](CCCNC(N)=O)NC(=O)[C@H](CCCNC(N)=O)NC(=O)[C@H](Cc2ccc(O)cc2)NC(=O)[C@@H]2CCCN2C(=O)[C@@H](CCCCN)NC1=O [Derivative of T140 peptide] | 68 nM |  | 
18 | NCCCC[C@@H]1NC(=O)[C@H](CCCNC(N)=O)NC(=O)[C@H](Cc2ccc(O)cc2)NC(=O)[C@@H](NC(=O)[C@@H](NC(=O)[C@H](CCCN=C(N)N)NC(=O)[C@@H](N)CCCNC(N)=O)c2ccc3ccccc3c2)CSSC[C@@H](C(=O)N[C@@H](CCCN=C(N)N)C(=O)O)NC(=O)[C@H](CCCNC(N)=O)NC(=O)[C@H](CCCN=C(N)N)NC(=O)[C@H](Cc2ccc(O)cc2)NC(=O)[C@@H]2CCCN2C(=O)[C@@H](CCCCN)NC1=O [Derivative of T140 peptide] | 37 nM |  | 
19 | Nc1ccn([C@H]2CC[C@@H](CO)O2)c(=O)n1 [Dideoxycytidine] | 88 nM |  | 
